Target: Indoleamine 2,3-dioxygenase 1 (Homo sapiens, UniProt P14902)
Assay: Enzyme Inhibition Assay
Conditions: pH 6.5; 37 °C
Description: The IC50 inhibition assays were performed in a 96-well microtiter plate format using purified recombinant IDO, which was added to the substrate, L-tryptophan (L-Trp), and the inhibitor. After the reaction, the product N-formylkynurenine was converted to kynurenine. The yellow color generated from reaction with kynurenine was measured at 490 nm using a microtiter plate reader. The data were analyzed using Graph Pad Prism 4 software (Graph Pad Software Inc.).

Sequence of Indoleamine 2,3-dioxygenase 1 (P14902 whole entry): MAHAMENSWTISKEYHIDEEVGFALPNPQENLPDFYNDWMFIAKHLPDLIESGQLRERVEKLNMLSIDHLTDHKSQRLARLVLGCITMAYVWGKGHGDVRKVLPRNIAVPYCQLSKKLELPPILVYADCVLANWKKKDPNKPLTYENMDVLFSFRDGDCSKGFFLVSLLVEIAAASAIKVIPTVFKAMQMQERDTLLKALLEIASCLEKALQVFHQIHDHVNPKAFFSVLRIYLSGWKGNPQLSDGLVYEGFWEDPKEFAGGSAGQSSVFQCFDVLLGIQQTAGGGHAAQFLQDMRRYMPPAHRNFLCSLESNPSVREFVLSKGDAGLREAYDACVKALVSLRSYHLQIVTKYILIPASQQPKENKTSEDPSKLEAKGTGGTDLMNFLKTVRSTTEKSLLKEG

IC50 [µM] | SMILES
675 | O=C1CC(=O)c2ccccc2C1=O
1.1 | CC1=CC(=O)c2ccccc2C1=O [Vitamin K3]

From BindingDB's records for doi:10.1021/jm7014155 (Bryn Mawr College, 2008)
